{
  "source": "ChEMBL document CHEMBL1201862",
  "about": "“PubChem BioAssay data set” (2004)",
  "key": {"[1]": {"biological_target": "T1, Histone-lysine N-methyltransferase NSD2 (Homo sapiens, UniProt O96028)", "T1 sequence (O96028 whole entry)": "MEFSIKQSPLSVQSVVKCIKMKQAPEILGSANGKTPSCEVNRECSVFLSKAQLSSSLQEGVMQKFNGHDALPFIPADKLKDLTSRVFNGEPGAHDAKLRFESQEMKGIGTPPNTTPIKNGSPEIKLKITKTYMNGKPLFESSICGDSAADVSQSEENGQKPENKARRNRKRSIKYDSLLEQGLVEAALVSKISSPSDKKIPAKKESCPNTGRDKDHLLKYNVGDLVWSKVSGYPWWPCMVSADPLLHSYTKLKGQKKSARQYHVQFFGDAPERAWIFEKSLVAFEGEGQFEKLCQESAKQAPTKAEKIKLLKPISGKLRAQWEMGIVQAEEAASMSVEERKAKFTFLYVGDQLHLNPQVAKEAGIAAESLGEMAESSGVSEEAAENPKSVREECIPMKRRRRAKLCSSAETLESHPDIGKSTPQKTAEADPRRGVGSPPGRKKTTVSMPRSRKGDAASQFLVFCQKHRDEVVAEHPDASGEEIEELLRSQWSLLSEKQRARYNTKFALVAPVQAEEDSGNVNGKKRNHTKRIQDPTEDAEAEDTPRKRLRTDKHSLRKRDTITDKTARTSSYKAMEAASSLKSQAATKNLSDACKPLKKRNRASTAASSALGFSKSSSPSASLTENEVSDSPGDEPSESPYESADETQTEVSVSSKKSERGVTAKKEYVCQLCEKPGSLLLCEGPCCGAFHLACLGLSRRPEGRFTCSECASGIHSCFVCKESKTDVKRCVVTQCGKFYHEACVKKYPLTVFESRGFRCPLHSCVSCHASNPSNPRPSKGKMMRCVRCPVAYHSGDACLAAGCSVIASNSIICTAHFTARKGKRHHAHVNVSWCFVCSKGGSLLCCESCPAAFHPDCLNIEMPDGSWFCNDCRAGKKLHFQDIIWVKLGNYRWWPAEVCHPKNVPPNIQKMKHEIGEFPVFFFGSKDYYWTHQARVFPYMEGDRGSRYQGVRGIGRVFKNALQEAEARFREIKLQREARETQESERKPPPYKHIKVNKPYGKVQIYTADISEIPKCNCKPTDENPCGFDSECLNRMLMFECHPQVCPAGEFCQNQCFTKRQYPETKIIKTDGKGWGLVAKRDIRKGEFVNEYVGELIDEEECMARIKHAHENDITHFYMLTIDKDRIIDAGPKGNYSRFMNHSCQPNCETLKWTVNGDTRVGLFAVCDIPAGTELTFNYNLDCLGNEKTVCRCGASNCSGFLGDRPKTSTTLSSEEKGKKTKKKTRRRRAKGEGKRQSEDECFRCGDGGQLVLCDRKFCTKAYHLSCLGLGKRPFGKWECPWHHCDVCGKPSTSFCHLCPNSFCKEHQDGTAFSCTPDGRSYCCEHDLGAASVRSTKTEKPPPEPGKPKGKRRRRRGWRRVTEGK", "assay_type": "biochemical"}, "[2]": {"assay": "inhibitors of PGC1a acetylation in cells, dose response, cell-based, cherry-picked samples (AID 720514);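 also: potency may reflect raised or lowered acetylation signal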", "assay_type": "functional"}, "[3]": {"biological_target": "FAD-linked sulfhydryl oxidase ALR (Homo sapiens, UniProt P55789)", "sequence (P55789 whole entry)": "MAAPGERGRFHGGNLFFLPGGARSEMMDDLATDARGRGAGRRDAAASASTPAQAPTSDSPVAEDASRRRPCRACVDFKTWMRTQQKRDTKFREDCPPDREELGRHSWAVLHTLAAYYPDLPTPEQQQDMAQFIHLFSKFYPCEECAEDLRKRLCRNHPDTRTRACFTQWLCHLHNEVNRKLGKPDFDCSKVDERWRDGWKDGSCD", "assay": "inhibitors of human ALR sulfhydryl oxidase, dose response, biochemical, H2O2 detection, luminescence, cherry-pick (AID 493248)"}, "Leucine aminopeptidase": {"biological_target": "T2, Leucine aminopeptidase (Plasmodium falciparum 3D7, UniProt Q8IL11)", "T2 sequence (Q8IL11 whole entry)": "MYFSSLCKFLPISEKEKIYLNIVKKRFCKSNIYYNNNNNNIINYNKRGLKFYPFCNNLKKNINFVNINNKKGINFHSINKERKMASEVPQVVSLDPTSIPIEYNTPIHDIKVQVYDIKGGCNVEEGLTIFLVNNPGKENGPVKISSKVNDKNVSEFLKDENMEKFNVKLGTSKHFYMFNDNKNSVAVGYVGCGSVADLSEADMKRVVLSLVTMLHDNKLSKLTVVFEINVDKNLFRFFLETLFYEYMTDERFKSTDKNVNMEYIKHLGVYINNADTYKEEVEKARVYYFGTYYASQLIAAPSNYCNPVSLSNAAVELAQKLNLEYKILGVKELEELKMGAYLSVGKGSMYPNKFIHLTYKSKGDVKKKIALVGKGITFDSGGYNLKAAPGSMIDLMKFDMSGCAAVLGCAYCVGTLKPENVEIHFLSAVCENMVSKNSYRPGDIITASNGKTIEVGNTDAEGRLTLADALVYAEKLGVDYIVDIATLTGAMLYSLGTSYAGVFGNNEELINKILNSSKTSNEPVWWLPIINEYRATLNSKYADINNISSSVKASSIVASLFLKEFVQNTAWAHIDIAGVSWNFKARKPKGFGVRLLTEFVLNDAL", "assay": "P. falciparum M17LAP inhibitors, primary screen, biochemical, fluorogenic H-Leu-NHMec substrate, 1536-well (AID 1619)", "assay_type": "functional"}, "[4]": {"assay": "cytotoxicity in HEK-293T cells, dose response, cytotoxicity control for TCR NF-kB inhibitor project, luminescence, T-cell screen hits (AID 489026);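 also: cells exposed to compound about 14 hours before the viability readout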", "assay_type": "functional, cell-based"}, "Prothrombin": {"biological_target": "Prothrombin (Homo sapiens, UniProt P00734)", "assay": "Thrombin 1536 HTS Dose Response Confirmation. [Related pubchem assays: 1046 (Thrombin 1536 HTS; hits were confirmed in this assay)]", "assay_type": "functional"}, "[5]": {"assay": "THP-1 cell cytotoxicity, dose response, cytotoxicity control for non-replicating M. tuberculosis project (AID 489025)", "assay_type": "functional"}, "cells": {"assay": "cells", "assay_type": "functional"}, "[6]": {"assay": "THP-1 cell cytotoxicity, dose response, cytotoxicity control for Vif-APOBEC3G degradation inhibitor project, THP-1 cells (AID 1117359)", "assay_type": "functional", "conditions": "Human immunodeficiency virus 1, THP-1"}, "[7]": {"biological_target": "Eukaryotic translation initiation factor 4E (Mus musculus, UniProt P63073)", "sequence (P63073 whole entry)": "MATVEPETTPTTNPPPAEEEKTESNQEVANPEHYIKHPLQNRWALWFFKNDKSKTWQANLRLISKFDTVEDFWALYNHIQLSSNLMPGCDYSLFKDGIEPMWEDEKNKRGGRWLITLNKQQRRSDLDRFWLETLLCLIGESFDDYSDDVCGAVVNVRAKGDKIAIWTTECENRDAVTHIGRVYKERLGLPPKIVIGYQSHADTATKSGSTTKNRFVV", "assay": "eIF4E–eIF4G protein interaction inhibitors, dose response, biochemical, TR-FRET (AID 855);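 also: potency for disrupting eIF4E binding to eIF4GI seen as loss of FRET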", "assay_type": "functional"}, "[8]": {"biological_target": "T3, Rac GTPase-activating protein 1 (Homo sapiens, UniProt Q9H0H5)", "T3 sequence (Q9H0H5 whole entry)": "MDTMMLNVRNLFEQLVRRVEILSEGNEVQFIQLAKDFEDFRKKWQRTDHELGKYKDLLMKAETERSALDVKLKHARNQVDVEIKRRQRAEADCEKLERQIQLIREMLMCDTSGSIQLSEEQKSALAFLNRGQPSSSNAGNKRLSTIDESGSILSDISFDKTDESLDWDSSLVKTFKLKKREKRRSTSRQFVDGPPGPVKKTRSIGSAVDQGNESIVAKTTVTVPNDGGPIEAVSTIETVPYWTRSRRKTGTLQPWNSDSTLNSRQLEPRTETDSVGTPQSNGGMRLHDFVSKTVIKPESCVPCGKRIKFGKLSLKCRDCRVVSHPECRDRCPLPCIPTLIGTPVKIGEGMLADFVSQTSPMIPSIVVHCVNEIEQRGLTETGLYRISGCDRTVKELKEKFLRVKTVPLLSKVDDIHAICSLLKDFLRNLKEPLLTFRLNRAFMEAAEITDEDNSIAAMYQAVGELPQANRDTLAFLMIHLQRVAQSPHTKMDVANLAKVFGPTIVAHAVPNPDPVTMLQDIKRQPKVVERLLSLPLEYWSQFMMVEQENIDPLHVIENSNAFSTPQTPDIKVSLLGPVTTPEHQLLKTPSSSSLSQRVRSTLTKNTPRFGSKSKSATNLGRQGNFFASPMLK", "assay": "MgcRacGAP GTPase-activating activity inhibitors, confirmation, biochemical, ADP Hunter fluorescence, primary and confirmatory (AID 624330)", "assay_type": "functional"}, "Large T antigen": {"biological_target": "Large T antigen (Simian virus 40, UniProt P03070)", "sequence (P03070 whole entry)": "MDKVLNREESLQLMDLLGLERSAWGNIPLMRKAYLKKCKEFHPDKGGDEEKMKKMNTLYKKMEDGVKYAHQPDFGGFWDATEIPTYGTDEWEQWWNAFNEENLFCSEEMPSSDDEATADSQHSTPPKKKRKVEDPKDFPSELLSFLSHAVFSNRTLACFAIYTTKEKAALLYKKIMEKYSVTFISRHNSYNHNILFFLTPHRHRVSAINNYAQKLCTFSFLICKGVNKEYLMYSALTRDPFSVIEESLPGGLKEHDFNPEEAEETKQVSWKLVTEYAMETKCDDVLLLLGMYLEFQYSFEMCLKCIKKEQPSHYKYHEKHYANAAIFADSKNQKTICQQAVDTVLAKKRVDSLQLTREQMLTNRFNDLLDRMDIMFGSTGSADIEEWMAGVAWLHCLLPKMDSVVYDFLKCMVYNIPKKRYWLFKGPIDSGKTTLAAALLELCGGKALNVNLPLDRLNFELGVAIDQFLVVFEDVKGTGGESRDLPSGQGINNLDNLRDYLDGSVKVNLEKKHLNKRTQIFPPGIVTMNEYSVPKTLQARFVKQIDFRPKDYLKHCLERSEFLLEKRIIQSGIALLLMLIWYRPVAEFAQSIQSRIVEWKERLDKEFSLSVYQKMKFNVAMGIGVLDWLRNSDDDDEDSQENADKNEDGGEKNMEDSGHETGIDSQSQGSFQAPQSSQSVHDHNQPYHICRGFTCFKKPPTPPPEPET", "assay_type": "functional, Betapolyomavirus macacae"}},
  "note": "Calls of active or inactive are those of the source.",
  "data": [
    {"smiles": "CCN(CC)CCNC(=O)Cc1nn(Cc2ccccc2)c(=O)c2ccccc12", "values": [
      {"measurement": "AC50", "setting": "[1]", "value": "> 20 µM (inactive)"}
    ]},
    {"smiles": "O=C1c2ccccc2-[n+]2ccc3c([nH]c4ccccc43)c21", "note": "[FASCAPLYSIN]", "values": [
      {"measurement": "AC50", "setting": "[2]", "value": "0.358 µM (active)"}
    ]},
    {"smiles": "COc1ccccc1-c1nnc2n1N=C(c1ccc(O)c(O)c1)CS2", "values": [
      {"measurement": "AC50", "setting": "[3]", "value": "1.97 µM (active)"},
      {"measurement": "AC50", "setting": "[1]", "value": "12.4 µM (active)"},
      {"measurement": "IC50", "setting": "Leucine aminopeptidase", "value": "39.2 µM (active)"},
      {"measurement": "IC50", "setting": "[4]", "value": "> 80 µM (inactive)"}
    ]},
    {"smiles": "CCN(CC)S(=O)(=O)c1ccc2c(c1)c(=O)c(C(=O)NCc1ccc3c(c1)OCO3)cn2C", "values": [
      {"measurement": "IC50", "setting": "Prothrombin", "value": "0.852 µM (active)"}
    ]},
    {"smiles": "c1ccc(CNCCC(Cc2ccccc2)c2ccco2)cc1", "note": "(stereo unspecified)", "values": [
      {"measurement": "CC50", "setting": "[5]", "value": "> 40 µM (active)"},
      {"measurement": "IC50", "setting": "cells", "value": "> 50 µM (active)"}
    ]},
    {"smiles": "COc1ccc(-c2cc(C)nc(SCC(=O)c3cccc([N+](=O)[O-])c3)n2)cc1", "values": [
      {"measurement": "CC50", "setting": "[6]", "value": "> 40 µM (active)"}
    ]},
    {"smiles": "Oc1n[nH]c(CSCc2ccccc2Cl)n1", "values": [
      {"measurement": "IC50", "setting": "[7]", "value": "> 64 µM (inactive)"}
    ]},
    {"smiles": "Cc1ccc(CN(Cc2ccccc2)C(S)=NCC(=O)N2CCC3(CC2)OCCO3)o1", "values": [
      {"measurement": "IC50", "setting": "[7]", "value": "50 µM (inactive)"}
    ]},
    {"smiles": "O=C(Cn1nc(C(F)F)cc1C(F)F)NNC(=S)Nc1ccc(F)cc1", "values": [
      {"measurement": "IC50", "setting": "Prothrombin", "value": "> 50 µM (not active)"}
    ]},
    {"smiles": "O=C1CS/C(=N\\c2ccc(O)cc2)N1c1ccc(O)cc1", "values": [
      {"measurement": "IC50", "setting": "[8]", "value": "51.9 µM (active)"},
      {"measurement": "AC50", "setting": "[3]", "value": "3.26 µM (active)"},
      {"measurement": "IC50", "setting": "Large T antigen", "value": "11.4 µM (active)"}
    ]}
  ]
}
